{"source": "paper PMC3816525", "about": "(Investigational new drugs, 2011)", "key": {"[1]": {"details": "human, in vivo"}, "[2]": {"details": "human, in vivo", "remark": "listed apart in the source"}, "mantle cell lymphoma": {"test_system": "mantle cell lymphoma", "details": "phase II, single agent; cited from earlier work"}, "glioblastoma multiforme": {"test_system": "glioblastoma multiforme", "details": "two trials in glioblastoma multiforme; cited from earlier work"}, "advanced breast cancer": {"test_system": "advanced breast cancer", "details": "heavily pretreated advanced breast cancer; cited from earlier work"}, "clinical [3]": {"experiment": "clinical", "details": "human, in vivo, AUC(0–24h)"}, "clinical [4]": {"experiment": "clinical", "details": "human, in vivo, AUC(0–24h)", "remark": "listed apart in the source"}, "[5]": {"details": "cited from earlier work"}}}
{"smiles": "CCOc1cc2ncc(C#N)c(Nc3ccc(F)c(Cl)c3)c2cc1NC(=O)/C=C/CNC", "note": "[N-desmethyl EKB-569]", "values": [{"measurement": "AUC(0–24h), Day 6", "setting": "[1]", "value": "52.7 ± 61.2", "unit": "ng·h/mL"}, {"measurement": "AUC(0–24h), Day 7", "setting": "[1]", "value": "60.8 ± 52.8", "unit": "ng·h/mL"}, {"measurement": "AUC(0–24h), Day 9", "setting": "[1]", "value": "75.2 ± 51.0", "unit": "ng·h/mL"}]}
{"smiles": "CO[C@H]1C[C@@H]2CC[C@@H](C)[C@@](O)(O2)C(=O)C(=O)N2CCCC[C@H]2C(=O)O[C@H]([C@H](C)C[C@@H]2CC[C@@H](OC(=O)C(C)(CO)CO)[C@H](OC)C2)CC(=O)[C@H](C)/C=C(\\C)[C@@H](O)[C@@H](OC)C(=O)[C@H](C)C[C@H](C)/C=C/C=C/C=C/1C", "note": "[temsirolimus]", "values": [{"measurement": "Change of AUC(0-24h) on Day 15 compared to day 1", "setting": "[2]", "value": 66, "unit": "%"}, {"measurement": "Median TTP", "setting": "mantle cell lymphoma", "value": 6, "unit": "months"}, {"measurement": "Overall response rate", "setting": "mantle cell lymphoma", "value": "38–41%"}, {"measurement": "TTP", "setting": "glioblastoma multiforme", "value": "9–38 weeks"}, {"measurement": "Partial response rate", "setting": "advanced breast cancer", "value": 9.2, "unit": "%"}, {"measurement": "AUC(0-t)", "setting": "clinical [3]; Day 3", "value": "68.3 ± 20.4", "unit": "ng·h/mL"}, {"measurement": "AUC(0-t)", "setting": "clinical [3]; po, 30 mg, Day 1", "value": "83.9 ± 27.6", "unit": "ng·h/mL"}]}
{"smiles": "CO[C@H]1C[C@@H]2CC[C@@H](C)[C@@](O)(O2)C(=O)C(=O)N2CCCC[C@H]2C(=O)O[C@H]([C@H](C)C[C@@H]2CC[C@@H](O)[C@H](OC)C2)CC(=O)[C@H](C)/C=C(\\C)[C@@H](O)[C@@H](OC)C(=O)[C@H](C)C[C@H](C)/C=C/C=C/C=C/1C", "note": "[sirolimus]", "values": [{"measurement": "Accumulation: AUC(0–24h) Day 3/Day 1", "setting": "[2]", "value": "1.37±0.44"}, {"measurement": "Accumulation: AUC(0–24h) Day 15/Day 1", "setting": "[2]", "value": "0.99±0.27"}, {"measurement": "Accumulation: AUC(0–24h) Day 17/Day 3", "setting": "[2]", "value": "1.78±0.63"}, {"measurement": "Change of AUC(0-24h) on Day 15 compared to day 1", "setting": "[2]", "value": "similar"}, {"measurement": "AUC(0-t)", "setting": "clinical [3]; Day 3", "value": "437 ± 116", "unit": "ng·h/mL"}, {"measurement": "AUC(0-t)", "setting": "clinical [3]; po, 30 mg, Day 1", "value": "348 ± 158", "unit": "ng·h/mL"}]}
{"smiles": "CCOc1cc2ncc(C#N)c(Nc3ccc(F)c(Cl)c3)c2cc1NC(=O)/C=C/CN(C)C", "note": "[EKB-569]", "values": [{"measurement": "Accumulation: AUC(0–24h) Day 6/Day 1", "setting": "[1]", "value": "1.78±0.56"}, {"measurement": "Accumulation: AUC(0–24h) Day 7/Day 6", "setting": "[1]", "value": "1.19±0.28"}, {"measurement": "Accumulation: AUC(0–24h) Day 9/Day 6", "setting": "[1]", "value": "1.40±0.33"}, {"measurement": "Increase of AUC(0-24h) on Day 7", "setting": "[1]", "value": "about 19%"}, {"measurement": "AUC(0-t)", "setting": "clinical [4]; Day 6", "value": "378 ± 144", "unit": "ng·h/mL"}, {"measurement": "AUC(0-t)", "setting": "clinical [4]; Day 7", "value": "426 ± 127", "unit": "ng·h/mL"}, {"measurement": "AUC(0-t)", "setting": "clinical [4]; Day 9", "value": "493 ± 112", "unit": "ng·h/mL"}, {"measurement": "MTD, single agent", "setting": "[5]; advanced solid tumors, DLT grade 3 diarrhea", "value": 75, "unit": "mg daily"}, {"measurement": "Recommended dose in combination with FOLFIRI", "setting": "[5]; in vivo", "value": 25, "unit": "mg daily"}]}
